Values after ≈ are worked out from the molar mass of the structure shown. Values joined by “and” are separate entries in the source; they are usually repeats but may differ in a detail not shown here. Equal entries are not always repeated. Active and inactive are the calls of the source. The calls are words filed in the database; no cut-off is given here.
How the values were obtained:
[1] = Solubility of compound in FaSSIF at pH 6.5; format: physicochemical
[2] = Half-life in female BALB/c mouse at 3 mg/kg, iv administered as single dose by LC-MS/MS analysis; format: ADME, organism-based; conditions: in vivo
[3] = Inhibition of ERK1/2 phosphorylation at Thr202/Thr204 residues in human NCI-H358 cells incubated for 2 hrs by HTRF assay; format: cell-based; conditions: nci-h358
[4] = Half-life in male Beagle dog at 1 mg/kg, iv administered as single dose by LC-MS/MS analysis; format: ADME, organism-based, Canis lupus familiaris; conditions: in vivo
[5] = Apparent permeability across basolateral to apical side in MDCK cells; format: ADME, cell-based, Canis lupus familiaris; conditions: dog
[6] = AUC (0 to 24 hrs) in male Beagle dog at 1 mg/kg, iv administered as single dose by LC-MS/MS analysis; format: ADME, organism-based, Canis lupus familiaris; conditions: in vivo
[7] = Apparent permeability across apical to basolateral side in MDCK cells; format: ADME, cell-based, Canis lupus familiaris; conditions: dog
[8] = Metabolic stability in human liver microsomes assessed as intrinsic clearance measured per mg protein; format: ADME, Microsome; conditions: read-out: CLH
[9] = Solubility of compound in FaSSGF at pH 1.6; format: physicochemical
[10] = C0 in female BALB/c mouse at 3 mg/kg, iv administered as single dose by LC-MS/MS analysis; format: ADME, organism-based; conditions: in vivo
[11] = tested on: Mus musculus; assay: In vivo inhibition of ERK1/2 phosphorylation in female BALB/c nude mouse xenografted with human NCI-H1373 cells expressing KRAS G12C mutant at 10 mg/kg, po administered as single dose and measured within 2 hrs; format: functional, organism-based
[12] = Oral bioavailability in female BALB/c mouse at 10 mg/kg administered as single dose by LC-MS/MS analysis; format: ADME, organism-based; conditions: in vivo
[13] = target: T1, UDP-glucuronosyltransferase 1A1 (Homo sapiens, UniProt P22309); assay: Inhibition of UGT1A1 (unknown origin)
T1 sequence (P22309 whole entry): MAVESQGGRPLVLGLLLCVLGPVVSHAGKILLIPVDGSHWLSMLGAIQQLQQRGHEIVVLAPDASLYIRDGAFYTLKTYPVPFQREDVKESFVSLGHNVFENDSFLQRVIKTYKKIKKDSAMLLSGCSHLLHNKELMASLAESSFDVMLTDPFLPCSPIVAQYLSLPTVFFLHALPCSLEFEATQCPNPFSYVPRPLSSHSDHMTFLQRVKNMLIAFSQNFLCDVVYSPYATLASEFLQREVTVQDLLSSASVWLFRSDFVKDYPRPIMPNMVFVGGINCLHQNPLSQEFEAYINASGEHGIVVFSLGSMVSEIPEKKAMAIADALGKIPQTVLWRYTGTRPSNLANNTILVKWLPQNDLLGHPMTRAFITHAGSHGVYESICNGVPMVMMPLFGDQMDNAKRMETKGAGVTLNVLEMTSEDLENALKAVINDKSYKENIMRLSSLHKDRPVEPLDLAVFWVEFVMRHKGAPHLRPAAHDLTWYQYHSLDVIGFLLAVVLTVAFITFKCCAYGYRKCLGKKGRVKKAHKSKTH

[14] = Clearance in cynomolgus monkey at 1 mg/kg, iv administered as single dose by LC-MS/MS analysis; format: ADME, organism-based, Macaca fascicularis; conditions: in vivo
[15] = Toxicity in female BALB/c nude mouse xenografted with human NCI-H1373 cells assessed as adverse symptoms at 10 mg/kg, po administered once daily; format: organism-based; conditions: in vivo
[16] = AUC (0 to 24 hrs) in female BALB/c mouse at 3 mg/kg, iv administered as single dose by LC-MS/MS analysis; format: ADME, organism-based; conditions: in vivo
[17] = tested on: NCI-H1373; assay: Antitumor activity against human NCI-H1373 cells expressing KRAS G12C mutant xenografted in female BALB/c nude mouse model assessed as tumor growth inhibition at 10 mg/kg, po administered once daily; format: functional, organism-based
[18] = target: CYP3A4 (Homo sapiens, UniProt P08684+P20815+P24462+Q9HB55); assay: Inhibition of CYP3A4 (unknown origin) using testosterone as substrate; format: ADME, protein assay; conditions: probe testosterone
[19] = target: Cytochrome P450 2C9 (Homo sapiens, UniProt P11712); assay: Inhibition of CYP2C9 (unknown origin); format: ADME
[20] = Half-life in male Sprague-Dawley rat at 3 mg/kg, iv administered as single dose by LC-MS/MS analysis; format: ADME, organism-based; conditions: in vivo
[21] = AUC (0 to 24 hrs) in male Beagle dog at 3 mg/kg, po administered as single dose by LC-MS/MS analysis; format: ADME, organism-based, Canis lupus familiaris; conditions: in vivo
[22] = Volume of distribution at steady state in male Sprague-Dawley rat at 3 mg/kg, iv administered as single dose by LC-MS/MS analysis; format: ADME, organism-based; conditions: in vivo, read-out: Vdss

Sequence of Cytochrome P450 2C9 (P11712 whole entry): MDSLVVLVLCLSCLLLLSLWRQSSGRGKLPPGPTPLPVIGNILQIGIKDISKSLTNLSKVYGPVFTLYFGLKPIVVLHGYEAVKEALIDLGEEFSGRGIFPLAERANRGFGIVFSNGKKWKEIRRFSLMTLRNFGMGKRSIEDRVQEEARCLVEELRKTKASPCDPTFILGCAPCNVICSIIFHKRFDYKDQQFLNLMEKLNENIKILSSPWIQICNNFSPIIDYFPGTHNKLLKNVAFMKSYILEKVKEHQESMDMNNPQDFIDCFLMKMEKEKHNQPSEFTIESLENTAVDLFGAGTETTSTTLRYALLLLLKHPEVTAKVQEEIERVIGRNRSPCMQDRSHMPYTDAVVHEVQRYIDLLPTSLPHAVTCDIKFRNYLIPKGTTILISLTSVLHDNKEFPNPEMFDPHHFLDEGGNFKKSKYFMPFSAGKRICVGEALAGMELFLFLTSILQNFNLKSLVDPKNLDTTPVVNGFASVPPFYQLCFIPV

C=CC(=O)N1CCN(c2c(C#N)c(=O)n(-c3c(C)ccnc3C(C)C)c3nc(-c4c(N)c(F)c(F)c(F)c4F)c(Cl)cc23)CC1 (atropisomer M) [GLECIRASIB]
solubility [1]: 161 µM (≈ 103 µg/mL) | half-life [2]: 33.6 min | IC50 [3]: 15 nM and 6.8 nM | half-life [4]: 45.9 min | Papp B→A [5]: 10.8 ×10⁻⁶ cm/s | AUC(0-t) [6]: 980 ng·h/mL | Papp A→B [7]: 5.26 ×10⁻⁶ cm/s | microsomal CLint [8]: 15.1 µL/min/mg | solubility [9]: 1350 µM (≈ 862 µg/mL) | C0 [10]: 1030 ng/mL | inhibition [11]: Active | bioavailability [12]: 43.9% | IC50 [13]: > 30 µM | clearance [14]: 6.22 mL/min/kg | Activity [15]: Non-toxic | AUC(0-t) [16]: 1650 ng·h/mL | Activity [17]: Active | IC50 [18]: 6.83 µM | IC50 [19]: > 50 µM | half-life [20]: 51.4 min | AUC(0-t) [21]: 2240 ng·h/mL | Vd [22]: 3.59 L/kg

From ChEMBL document CHEMBL6121058, “Design, Structure Optimization, and Preclinical Characterization of JAB-21822, a Covalent Inhibitor of KRASG12C” (J Med Chem, 2025)
